Results taken from patent publication EP1701622B1, “METHOD FOR WASHING CARCASS, MEAT, OR MEAT PRODUCTS WITH MEDIUM CHAIN PEROXYCARBOXYLIC ACID COMPOSITIONS” (ECOLAB INC., priority 2004, dated 2005).
Like-named read-outs stand apart in the source and are kept apart here.

Assays:
Format in all cases: cell-based
[1] = test system: Bacterial Spores; assay: Sporicidal test against conventional compositions (Table 22); details: H2O2 35% pH 3.32, KK 2.0 wt-% (250 ppm POOA) pH 1.85, mixed peracid 1.5 wt-% (750 ppm peracid) pH 3.06, peroxyacetic 4.5 wt-% (2610 ppm POAA) pH 2.61
Protocol: (§1) Antimicrobial activity was determined according to two well established methods. The first method was the procedure set out in Germicidal and Detergent Sanitizing Action of Disinfectants, Official Methods of Analysis of the Association of Official Analytical Chemists, paragraph 960.09 and applicable sections, 15th Edition, 1990 (EPA Guideline 91-2). The second method was the procedure described in A.O.A.C. Use Dilution Methods, Official Methods of Analysis of the Association of Official Analytical Chemists, paragraph 955.14 and applicable sections, 15th Edition, 1990 (EPA Guideline 91-2). Briefly, antimicrobial activity of the present compositions was determined by exposing a one mL aliquot containing the target microorganism to 99 mL of the desired concentration of the test substance at the desired temperature. After the specified contact time, one mL of the test solution containing the microorganism was neutralized and enumerated for survivors.

[2] = test system: S. aureus; assay: Germicidal and detergent sanitizing action suspension test (AOAC 960.09); details: Staphylococcus aureus, 0.5 min
Protocol: as §1
(§2) Antimicrobial activity was determined as described above in Example 4.
(§3) Test 1 included 5 min exposure of the microbe to composition AB at room temperature. The microbes in test 1 included E. aerogenes ATCC 13048 and S. aureus ATCC 6538. Test 2 included 30 sec exposure of the microbe to composition AB at room temperature. The microbes in test 2 included S. aureus ATCC 6538, E. coli ATCC 11229, and P. aeruginosa ATCC 13442.

[3] = test system: E. coli; assay: as above; details: Escherichia coli, 0.5 min; for log reduction at 5 ppm / log reduction at 10 ppm: 30 Second Exposure at Room Temperature; for log reduction at 20 ppm / log reduction at 40 ppm / log reduction at 60 ppm: 30 seconds
Protocol: as §1, §2, §3

[4] = Soft water pH 3.91, Post Test pH 4.01

OO [Composition H2O2, hydrogen peroxide]
Log Reduction ([1]; 40 °C, 30 sec): 1.19 log
Log Reduction ([1]; 40 °C, 60 sec): 2.94 log
Log Reduction ([1]; 40 °C, 120 sec): >6.30 log
Log Reduction ([1]; 60 °C, 10 sec): 1.59 log
Log Reduction ([1]; 60 °C, 20 sec): 4.85 log
Log Reduction ([1]; 60 °C, 30 sec): 4.89 log
Log Reduction ([1]; 80 °C, 10 sec): >6.30 log
Log Reduction ([1]; 80 °C, 20 sec): >6.30 log
Log Reduction ([1]; 80 °C, 30 sec): >6.30 log

CCCCCCCC(=O)OO [Pure POOA Crystals, peroxyoctanoic acid]
log reduction at 5 ppm ([2]; 5 ppm, Milli-Q water pH 4.04, Post Test pH 4.09, 30 Second Exposure at Room Temperature, read-out: Log Reduction of S. aureus): 6.28
log reduction at 5 ppm ([2]; 5 ppm, Milli-Q water pH 5.00, Post Test pH 5.03, 30 Second Exposure at Room Temperature, read-out: Log Reduction of S. aureus): 5.01
log reduction at 5 ppm ([2]; 5 ppm, Milli-Q water pH 5.98, Post Test pH 5.89, 30 Second Exposure at Room Temperature, read-out: Log Reduction of S. aureus): 4.44
log reduction at 5 ppm ([2]; 5 ppm, Milli-Q water pH 6.60, Post Test pH 6.24, 30 Second Exposure at Room Temperature, read-out: Log Reduction of S. aureus): 6.04
log reduction at 5 ppm ([2]; 5 ppm, Soft water pH 3.91, Post Test pH 4.01, 30 Second Exposure at Room Temperature, read-out: Log Reduction of S. aureus): 5.82
log reduction at 5 ppm ([2]; 5 ppm, Soft water pH 5.08* (pH drift of ~0.7 pH units), Post Test pH 5.79, 30 Second Exposure at Room Temperature, read-out: Log Reduction of S. aureus): 5.16
log reduction at 5 ppm ([2]; 5 ppm, Soft water pH 5.91* (pH drift of ~0.7 pH units), Post Test pH 6.68, 30 Second Exposure at Room Temperature, read-out: Log Reduction of S. aureus): 4.19
log reduction at 5 ppm ([2]; 5 ppm, Soft water pH 9.29, Post Test pH 9.12, 30 Second Exposure at Room Temperature, read-out: Log Reduction of S. aureus): 0.1
log reduction at 10 ppm ([2]; Milli-Q water pH 4.04, Post Test pH 4.08, 30 Second Exposure at Room Temperature): > 6.82
log reduction at 10 ppm ([2]; Milli-Q water pH 5.00, Post Test pH 4.98, 30 Second Exposure at Room Temperature): > 6.82
log reduction at 10 ppm ([2]; Milli-Q water pH 5.98, Post Test pH 5.90, 30 Second Exposure at Room Temperature): 6.52
log reduction at 10 ppm ([2]; Milli-Q water pH 6.60, Post Test pH 5.80, 30 Second Exposure at Room Temperature): > 6.82
log reduction at 10 ppm ([2]; Soft water pH 3.91, Post Test pH 4.01, 30 Second Exposure at Room Temperature): 6.28
log reduction at 10 ppm ([2]; Soft water pH 5.08, Post Test pH 5.67, 30 Second Exposure at Room Temperature): 6.12
log reduction at 10 ppm ([2]; Soft water pH 5.91, Post Test pH 6.68, 30 Second Exposure at Room Temperature): > 6.82
log reduction at 10 ppm ([2]; Soft water pH 9.29, Post Test pH 9.09, 30 Second Exposure at Room Temperature): 0.26
log reduction at 5 ppm ([2]; concentration of 5 ppm, pH of ~5, 30 sec, RT, read-out: log reductions of Staphylococcus aureus): 5
log reduction at 5 ppm ([3]; Milli-Q water pH 4.04, Post Test pH 4.09): 1.34
log reduction at 5 ppm ([3]; Milli-Q water pH 5.00, Post Test pH 5.03): 0.07
log reduction at 5 ppm ([3]; Milli-Q water pH 5.98, Post Test pH 5.89): 0.11
log reduction at 5 ppm ([3]; Milli-Q water pH 6.60, Post Test pH 6.24): 0.09
log reduction at 5 ppm [3, 4]: 1.26
log reduction at 5 ppm ([3]; Soft water pH 5.08* (pH drift of ~0.7 pH units), Post Test pH 5.79): 0.09
log reduction at 5 ppm ([3]; Soft water pH 5.91* (pH drift of ~0.7 pH units), Post Test pH 6.68): 0.08
log reduction at 5 ppm ([3]; Soft water pH 9.29, Post Test pH 9.12): 0.07
log reduction at 10 ppm ([3]; Milli-Q water pH 4.04, Post Test pH 4.08): 6.04
log reduction at 10 ppm ([3]; Milli-Q water pH 5.00, Post Test pH 4.98): 0.07
log reduction at 10 ppm ([3]; Milli-Q water pH 5.98, Post Test pH 5.90): 0.1
log reduction at 10 ppm ([3]; Milli-Q water pH 6.60, Post Test pH 5.80): 0.06
log reduction at 10 ppm [3, 4]: 6.34
log reduction at 10 ppm ([3]; Soft water pH 5.08, Post Test pH 5.67): 0.55
log reduction at 10 ppm ([3]; Soft water pH 5.91, Post Test pH 6.68): 0.24
log reduction at 10 ppm ([3]; Soft water pH 9.29, Post Test pH 9.09): 0.07
log reduction at 20 ppm ([3]; 20 ppm, 500 ppm Synthetic Hard Water, pH 7.77, pH 7.68): 0.62
log reduction at 40 ppm ([3]; 40 ppm, 500 ppm Synthetic Hard Water, pH 7.77, pH 7.61): 0.93
log reduction at 60 ppm ([3]; 60 ppm, 500 ppm Synthetic Hard Water, pH 7.77, pH 7.54): 1.12
log reduction at 60 ppm ([3]; pH 5.08, 60 ppm, Milli-Q water, pH 5.08): 4.68
log reduction at 40 ppm ([3]; pH 5.28, 40 ppm, Milli-Q water, pH 5.28): 2.61
log reduction at 20 ppm ([3]; pH 5.58, 20 ppm, Milli-Q water, pH 5.58): 0.55
